Experimental data reported in paper PMC12591484 (PLOS One, 2025).
Read-outs that look alike come from different tables or passages of the source. Marks after values point to notes of the source that are not given here.

Assays:
[1] = target: T1, α1β3γ2I242C GABAA receptors (Homo sapiens, UniProt P14867+P18507+P28472, I281C); set-up: key: +: Mutant-function studies are deemed positive when bulky mutations (mostly tryptophans) at the site significantly reduce positive modulation by anesthetics; -: Negative results are indicated by “–“ symbols; settings: previously reported; cited from earlier work
T1 construct: expressed in transfected cells; host or cells: Xenopus oocytes injected with capped mRNAs mixed 1α:1β:5γ
T1 sequence (P14867 28-456): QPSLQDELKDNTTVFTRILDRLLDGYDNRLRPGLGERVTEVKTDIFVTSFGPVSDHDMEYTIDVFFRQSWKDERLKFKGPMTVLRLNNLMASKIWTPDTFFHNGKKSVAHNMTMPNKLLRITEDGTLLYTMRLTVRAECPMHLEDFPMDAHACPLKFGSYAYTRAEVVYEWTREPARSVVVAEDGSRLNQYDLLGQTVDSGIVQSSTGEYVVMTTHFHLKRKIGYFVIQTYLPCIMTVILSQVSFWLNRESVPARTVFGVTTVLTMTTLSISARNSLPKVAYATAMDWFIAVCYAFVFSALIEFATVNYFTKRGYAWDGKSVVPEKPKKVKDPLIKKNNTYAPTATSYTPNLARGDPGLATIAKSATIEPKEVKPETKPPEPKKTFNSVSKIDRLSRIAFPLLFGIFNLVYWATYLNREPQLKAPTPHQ
T1 sequence (P28472 26-473): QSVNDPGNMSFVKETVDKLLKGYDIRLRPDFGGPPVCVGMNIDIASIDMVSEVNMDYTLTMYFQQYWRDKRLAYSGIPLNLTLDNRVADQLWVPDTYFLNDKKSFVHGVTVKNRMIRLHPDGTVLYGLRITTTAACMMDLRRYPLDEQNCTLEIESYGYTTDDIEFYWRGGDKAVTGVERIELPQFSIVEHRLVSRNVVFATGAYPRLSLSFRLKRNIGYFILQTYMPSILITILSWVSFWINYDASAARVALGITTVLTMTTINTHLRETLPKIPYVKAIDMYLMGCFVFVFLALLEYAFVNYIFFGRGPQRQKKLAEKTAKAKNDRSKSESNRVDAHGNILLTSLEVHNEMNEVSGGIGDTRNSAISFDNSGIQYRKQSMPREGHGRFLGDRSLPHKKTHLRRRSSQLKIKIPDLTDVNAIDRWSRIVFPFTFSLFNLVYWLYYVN
T1 sequence (P18507 40-475 I281C): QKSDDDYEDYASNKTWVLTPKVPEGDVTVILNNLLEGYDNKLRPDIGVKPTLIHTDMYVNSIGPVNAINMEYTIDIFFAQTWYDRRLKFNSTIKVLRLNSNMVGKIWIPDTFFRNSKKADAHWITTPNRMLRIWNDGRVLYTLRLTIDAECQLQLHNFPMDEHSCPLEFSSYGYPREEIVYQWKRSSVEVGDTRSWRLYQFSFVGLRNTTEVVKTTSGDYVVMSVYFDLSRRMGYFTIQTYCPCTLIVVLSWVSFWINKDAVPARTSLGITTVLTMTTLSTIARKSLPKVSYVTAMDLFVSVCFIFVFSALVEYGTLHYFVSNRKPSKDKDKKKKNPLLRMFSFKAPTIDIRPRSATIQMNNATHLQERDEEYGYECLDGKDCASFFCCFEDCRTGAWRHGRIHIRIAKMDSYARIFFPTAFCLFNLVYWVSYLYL

[2] = target: T2, α1S270Cβ3γ2L GABAA receptors (Homo sapiens, UniProt P14867+P18507+P28472, S297C); assay: Drug protection from pCMBS modification (SCAMP); assay type: cell-based; set-up: key: +: SCAMP is Substituted Cysteine Modification and Protection and is positive when adding anesthetic to cysteine modifier significantly reduces persistent post-exposure effects due to covalent modification; -: Negative results are indicated by “–“ symbols; settings: results of this study (*)
T2 construct: expressed in transfected cells; host or cells: Xenopus oocytes injected with capped mRNA, 1α:1β:5γ
T2 sequence (P14867 28-456 S297C): as the sequence (P14867 28-456) above, with S270C counted along it
T2 sequence (P28472 26-473): as the sequence (P28472 26-473) above
T2 sequence (P18507 40-475): as the sequence (P18507 40-475 I281C) above, with C242I counted along it
Procedure: (§1) Experiments were performed in ND-96 buffer at room temperature (20–22°C). Oocytes were placed in a low-volume (30µl) flow chamber and impaled with borosilicate microelectrodes filled with 3M KCl (resistance 0.5–3 MΩ) and voltage-clamped at −50 mV (model OC-725C; Warner Instruments, Hamden, CT, USA). Superfusate solutions in ND-96 were delivered at 2 ml/min from glass syringe reservoirs via computer-controlled valves (VC-8; Warner Instruments), a micro-manifold (ALA-VM8; ALA Scientific Instruments, Farmingdale, NY, USA), and PTFE tubing. Currents were digitized at 200 Hz on a computer running ClampEx v8.0 software (Molecular Devices, San Jose, CA, USA). Digitized traces were filtered with a 10-Hz low-pass Bessel function, leak corrected and analyzed for peak amplitude off-line using Clampfit v8 software (Molecular Devices).
(§2) Drug protection from pCMBS modification was assessed under pCMBS exposure conditions that produced approximately half of the maximal modification ratio for each mutant receptor, and a least a value of 3. This approach balanced the magnitude of functional modification signals (smaller with less pCMBS exposure) against the challenge of using a reversibly bound ligand to competitively block an irreversible covalent cysteine-modifying reaction. […] Each oocyte was used in a single SCAMP experiment. […] Etomidate was used as a positive control for anesthetic protection in α1M236C and β3M286C mutants and as a negative control in α1S270C, α1A291C, β3L231C, γ2S301C, γ2I242C, and γ2L246C mutants. R-mTFD-MPAB was used as a positive control in α1S270C, α1A291C, β3L231C, and γ2LS301C mutants and as a negative control in α1M236C and β3M286C mutants. For each cysteine mutant and protective drug combination, five oocytes were studied.
(§3) Non-linear least squares fits and statistical analyses were performed in Prism 10.4.0. (GraphPad Software, San Diego, CA, USA). […] Protection (steric inhibition of pCMBS modification) was inferred when anesthetics produced significant reductions in modification ratios relative to control (no anesthetic) values. The statistical significance threshold was p < 0.05.

[3] = system: α1β3γ2L GABAA receptors, substituted cysteine at α1L232 (α1– M1); set-up: key: +: Mutant-function studies are deemed positive when bulky mutations (mostly tryptophans) at the site significantly reduce positive modulation by anesthetics; -: Negative results are indicated by “–“ symbols; settings: previously reported; cited from earlier work
[4] = target: T3, α1β3L231Cγ2L GABAA receptors (Homo sapiens, UniProt P14867+P18507+P28472, L256C); assay: Drug protection from pCMBS modification (SCAMP); assay type: cell-based; set-up: key: +: Mutant-function studies are deemed positive when bulky mutations (mostly tryptophans) at the site significantly reduce positive modulation by anesthetics; -: Negative results are indicated by “–“ symbols; settings: results of this study (*); some cells also cite [9]
T3 construct: expressed in transfected cells; host or cells: Xenopus oocytes injected with capped mRNA, 1α:1β:5γ
T3 sequence (P14867 28-456): as the sequence (P14867 28-456) above
T3 sequence (P28472 26-473 L256C): as the sequence (P28472 26-473) above, with L231C counted along it
T3 sequence (P18507 40-475): as the sequence (P18507 40-475 I281C) above, with C242I counted along it
Procedure: as §1, §2, §3

[5] = target: T4, α1β3γ2L246C GABAA receptors (Homo sapiens, UniProt P14867+P18507+P28472, L285C); assay: Drug protection from pCMBS modification (SCAMP); assay type: cell-based; set-up: key: +: Mutant-function studies are deemed positive when bulky mutations (mostly tryptophans) at the site significantly reduce positive modulation by anesthetics; -: Negative results are indicated by “–“ symbols; settings: results of this study (*); etomidate cell also cites [9]
T4 construct: expressed in transfected cells; host or cells: Xenopus oocytes injected with capped mRNAs mixed 1α:1β:5γ
T4 sequence (P14867 28-456, stated change not applied): as the sequence (P14867 28-456) above
T4 sequence (P28472 26-473): as the sequence (P28472 26-473) above
T4 sequence (P18507 40-475 L285C): as the sequence (P18507 40-475 I281C) above, with C242I, L246C counted along it
Procedure: as §1, §2, §3

[6] = target: T5, α1β3M286Cγ2L GABAA receptors (Homo sapiens, UniProt P14867+P18507+P28472, M311C); assay: Drug protection from pCMBS modification (SCAMP); assay type: cell-based; set-up: key: +: SCAMP is Substituted Cysteine Modification and Protection and is positive when adding anesthetic to cysteine modifier significantly reduces persistent post-exposure effects due to covalent modification; -: Negative results are indicated by “–“ symbols; settings: results of this study (*); etomidate cell also cites [16]
T5 construct: expressed in transfected cells; host or cells: Xenopus oocytes injected with capped mRNA, 1α:1β:5γ
T5 sequence (P14867 28-456): as the sequence (P14867 28-456) above
T5 sequence (P28472 26-473 M311C): as the sequence (P28472 26-473) above, with M286C counted along it
T5 sequence (P18507 40-475): as the sequence (P18507 40-475 I281C) above, with C242I counted along it
Procedure: as §1, §2, §3

[7] = system: α1β3γ2L GABAA receptors, substituted cysteine at α1L232 (α1– M1); set-up: key: +: SCAMP is Substituted Cysteine Modification and Protection and is positive when adding anesthetic to cysteine modifier significantly reduces persistent post-exposure effects due to covalent modification; -: Negative results are indicated by “–“ symbols; settings: previously reported; cited from earlier work
[8] = target: T4, α1β3γ2L246C GABAA receptors; assay: Drug protection from pCMBS modification (SCAMP); assay type: cell-based; set-up: key: +: SCAMP is Substituted Cysteine Modification and Protection and is positive when adding anesthetic to cysteine modifier significantly reduces persistent post-exposure effects due to covalent modification; -: Negative results are indicated by “–“ symbols; settings: results of this study (*); etomidate cell also cites [9]
Procedure: as §1, §2, §3

C=CCC1(c2cccc(C3(C(F)(F)F)N=N3)c2)C(=O)NC(=O)N(C)C1=O (centres unmarked) [R-mTFD-MPAB, R-5-allyl-1-methyl-5-(m-trifluoromethyl-diazirynylphenyl) barbituric acid]
SCAMP result, γ2– (M1) I242 [1]: -^[9]
SCAMP result, α1+ (M2, M3) S270 [2]: +*
SCAMP result, α1– (M1) L232 [3]: -^[9]

CCOC(=O)c1cncn1[C@H](C)c1ccccc1 [etomidate, R-etomidate]
SCAMP result, β3– (M1) L231 [4]: -^[9], *
SCAMP result, γ2– (M1) L246 [5]: -^[9], *
SCAMP result, β3+ (M2, M3) M286 [6]: +^[16], *
SCAMP result, α1– (M1) L232 [7]: +^[9]

CC(C)c1cc(C2(C(F)(F)F)N=N2)cc(C(C)C)c1CO [pTFD-di-iPr-BnOH]
SCAMP result, γ2– (M1) L246 [8]: +*
